Reference: US20240074473A1, “METHOD FOR INDUCING HYPERTROPHIC MUSCLE FIBERS FOR INDUSTRIAL MEAT PRODUCTION” (Yeda Research and Development Co. Ltd., priority 2021, published 2024)
Read-outs that look alike come from different tables or passages of the source.

What was measured:
[1] = Margin of estimated intake below NOAEL of rat toxicity study; assay type: in vivo
From the text: (§1) Category 2: These cell culture media components are common dietary nutrients and are anticipated to have GRAS status for food use or be permitted by regulation for addition to food. Examples of such compounds include most of the inorganic salts and macronutrients that are present within the cell culture media. […] Majority of nutrients present within the poultry cell-based meat may be readily measured using common validated methods for food composition testing. Batch analyses of multiple lots of the finished product may be obtained to validate the above assumptions. In some instances, consideration of established safe levels (e.g., ADI, UL) derived from a relevant authoritative body (e.g., U.S. FDA, EFSA, JECFA, FSANZ, U.S. EPA) may be leveraged to support safety. If comparisons of anticipated dietary intakes relative to an authoritative reference intake value is used, consideration of additive intakes from all dietary sources may be considered. In the absence of an authoritative reference intake value, published NOAELs from animal toxicology studies may be used to evaluate safety using standard scientific procedures for food safety evaluation. A margin of exposure (MoE) of 100-fold or greater between the NOAEL and estimated dietary intakes from food exposures is typically considered adequate to support safety. in situations where the MoE is <100-fold, additional measures for further reduction of the media component may be necessary, or further characterization of intraspecies/interspecies differences in metabolism may be necessary. These situations also require careful consideration of the regulatory status on a case-by basis (e.g., premarket approval as a food additive or GRAS evaluation required).

[2] = Maximum estimated dietary exposure to media ingredients per 100 g serving; settings: assumption of complete transfer of media components to the finished product on a wt/wt basis
[3] = Risk categorization of cell culture media ingredients
From the text: Category 1: These cell culture media components are food ingredients/additives that are GRAS or permitted by federal regulation without limitation on use. Exemplary compounds in this category include innocuous ingredients such as sugars, pH buffers, water soluble vitamins, and common antioxidants such as tocopherols.
as §1
For example, situations where the compound is not detectable in finished product or is present at equivalent levels in comparator foods, compounds that are thermo-labile and will be digested during cooking, and/or compounds that are expected to be digested to innocuous compounds following ingestion. Examples of compounds meeting the aforementioned conditions would include recombinant growth factors and serum components. For Category 3 substances a final consideration in the safety assessment process may involve hazard characterization of the potential for a substance to produce toxic biological effects outside of the endpoints measured in a sub-chronic rat toxicity study. Substances with biological activity may require additional hazard characterization related to reproductive and developmental toxicity, or immunotoxicity. Considerations for allergenicity, biological effects in humans (e.g., effects on blood pressure), and synergistic effects with other media components also may be evaluated. […] Examples of category 3 components include recombinant proteins and animal serum.

primary mouse myoblasts [4] = assay: MYOG positive nuclei in primary mouse myoblasts (immunofluorescence); assay type: cell-based; settings: co-treatment with 1 μM ERKi, 24 hrs; HX531 20 uM, Dantrolene 50 uM, BAPTA-AM 10 uM, KN93 5 uM
Method: (§2) Isolation of and treatment of primary myoblasts. Primary mouse myoblasts were isolated from gastrocnemius muscle using trypsin-tissue dissociation. Briefly, muscle tissues were incubated in Trypsin B (0.25%, Biological Industries) and subjected to mechanical dissociation with a serological pipet. Supernatants were strained and centrifuged. Pellets were grown resuspended in BioAmf-2 media (Biological Industries, Israel) and plated on 10% Matrigel (BD Biosciences)-coated plates at 37° and 5% CO2. For all in vitro experiments, proliferation medium was Bio-Amf2 (Biological Industries, Israel) and Differentiation medium (DM) was DMEM 2% Horse Serum (HS) with 1% Pen/Strep. For fusion assays, cells were trypsinized with Trypsin C (0.05%, Biological Industries) and subjected to two rounds of preplating on uncoated plates to reduce the number of fibroblasts. Cells were plated at a density of 8×10^3 per well in 10% Matrigel-coated 96-well plates in proliferation medium for 24 hours. The following day, proliferation media was replaced either with proliferation media or with DM containing DMSO (Ctrl) or 1 μM ERK1/2 inhibitor (ERKi; SCH772984, Cayman Chemicals), […] RXR antagonist (RXRi; HX-531, Cayman Chemicals), […] Ryanodine receptor antagonist (RYRi; Dantrolene, Cayman Chemicals), 5 μM CaMKII inhibitor (CaMKIIi; KN93, Cayman Chemicals), or with DM for controls.
(§3) Immunofluorescence staining. First passage primary myoblasts isolated from various strains (indicated in figure legends) were plated in 96-well plates or chamber slides and treated as previously described. The cells were fixed with ice cold 4% PFA in PBS for 10 minutes, permeabilized with 0.5% Triton X-100 in PBS for 6 minutes, and blocked in PBS with 0.025% tween, 10% normal horse serum and 10% normal goat serum for 1 hour at room temperature. Primary antibody incubation was done in blocking buffer overnight at 4 degrees, with the following antibodies: Myosin Heavy Chain (MyHC, MF20, DSHB hybridoma supernatant 1:10, or MY-32 ABCAM ab51263 1:400), Myogenin (MYOG sc-13137 SCBT 1:200), pHistone 3 (PH3, ab47297 ABCAM 1:1000), Ki-67 (Cell Marque #275R), RYR (ab2868 ABCAM 1:100), and pCaMKII (SIGMA SAB4504356 1:100). Cells were washed 3 times in PBS with 0.025% tween and then incubated with appropriate secondary antibodies in PBS 1 hour. Where indicated, nuclei were either labeled with DAPI (SIGMA D9542, 5 ug/ml) or Hoechst 33342 (Thermo scientific #62249, 1:2000). Fixed cells at 24 hours post treatment with indicated inhibitors were imaged using the Nikon Eclipse Ti2 microscope (further described in microscopy section). All analysis was performed on at least 1000 nuclei. For fixed cells following the timecourse with ERKi or DM (FIG. 1B), images were captured with an inverted Olympus IX83 microscope (further details in microscopy section). All imaging analysis were performed on at least 1000 cells.

primary mouse myoblasts [5] = assay: Proliferation markers KI-67 and pH3 staining in primary mouse myoblasts; assay type: cell-based; settings: co-treatment of ERKi with CaMKIIi
Method: as §3, with “For fixed cells following the timecourse with ERKi or DM (FIG. 1B), images were captured with an inverted Olympus IX83 microscope (further details in microscopy section). All imaging analysis were performed on at least 1000 cells.” left out

primary mouse myoblasts [6] = assay: Fusion index of primary mouse myoblasts (MyHC immunostaining); assay type: cell-based; settings: co-treatment with ERKi and 5 uM KN93; bi- and tri-nucleated MyHC+ cells maintained
Method: as §2
as §3, with “For fixed cells following the timecourse with ERKi or DM (FIG. 1B), images were captured with an inverted Olympus IX83 microscope (further details in microscopy section). All imaging analysis were performed on at least 1000 cells.” left out
Quantification of fusion index. Following immunostaining and imaging, a fusion index was quantified by manually identifying nuclei found in a MyHC positive cell with at least 2 nuclei. Then the values were expressed as a percentage of the total nuclei per field. Briefly, in Figures where fusion index is stratified into subgroups of fiber size, the nuclei number in MyHC positive cell was manually quantified in a given field and stratified into groups of mononucleated, bi-nucleated myotubes, myotubes with 3-10 nuclei and myotubes with greater than 10 nuclei. […] Fields were analyzed hourly, and nuclei per cell was quantified and stratified into mononucleated, bi-nucleated, tri-nucleated and cells with ≥4 nuclei.

primary mouse myoblasts [7] = assay: Cell motility of myoblasts; assay type: cell-based; settings: co-treatment with ERKi and CaMKIIi
CaMKII = assay: Western blot of CaMKII activation (p-CaMKII T287) in myoblasts; assay type: cell-based, mouse; settings: co-treatment with ERKi and 5 uM KN93, 24 hrs
Method: Western Blot analysis. Cultured cells and whole tissues extracts were prepared with RIPA buffer supplemented with protease inhibitor cocktail (SIGMA P8340), and phosphatase inhibitor cocktails (SIGMA P5726 and P0044). Western blotting was performed using the Mini-PROTEAN Tetra Cell electrophoresis system, and transferred to PVDF membranes. The following primary antibodies concentrations were used p-CAMKII 1:1000 (Abcam ab182647), CaMKII 1:1000 (Cell Signaling 3362), GAPDH 1:10,000 (Abcam ab181602), p-ERK1/2 1:20,000 (SIGMA M9692), ERK1/2 1:40,000 (SIGMA), Myosin Heavy Chain (MF-20 DSHB hybridoma supernatant 1:100) Horseradish peroxidase conjugated secondary anti-mouse, anti-rabbit or anti-goat was used to detect proteins (Jackson Immunology). Western blots were imaged using the Chemidoc Multiplex system (Bio-rad).

primary mouse myoblasts [8] = assay: qRT-PCR gene expression in primary mouse myoblasts; assay type: cell-based; settings: co-treatment with ERKi and CaMKIIi
Method: Quantitative real-time PCR (qRT-PCR). Total RNA was isolated using Tri-Reagent (SIGMA) according to the manufacturer's instructions. cDNA was synthesized with the High Capacity cDNA Reverse Transcription Kit (Applied Biosystems according to the manufacturer's instructions. qRT-PCR was performed with SYBR green PCR Master Mix (Applied Biosystems) using the StepOnePlus Real-time PCR system (Applied Biosystems). Values for specific genes were normalize to either Gapdh or Hprt housekeeping control as indicated in Figure legend. Expression was calculated using the ddCT method.
First passage primary mouse derived myoblast were seeded in proliferation media, in equal number in 12-well tissue culture plates that were precoated with 10% Matrigel solution. Following 24 hours to allow for complete attachment, culture media was washed and replaced either with fresh proliferation media (PM), PM supplemented with 1 uM SCH 772984 (ERKi) or differentiation media (DM). After 24 hrs, cells were lysed and RNA was collected. Gene expression analysis was carried out using SYBR green qRT-PCR analysis.

[9] = cell culture media ingredient used during meat production

O=C(O)CCC(=O)O [SUCCINIC ACID]
Intakes for a 65 kg adult below NOAEL ([1]; NOAEL from 2 year rat study): adult are 257-fold
Maximum Estimated Exposure per 100 g serving [2]: 200 mg

O=[Se]([O-])[O-].[Na+].[Na+] [SODIUM SELENITE (ANHY)]
Intakes for a 65 kg adult below NOAEL ([1]; 13 week rat NOAEL): are 133-fold below 13
Risk Assessment Category [3, 9]: 2
Maximum Estimated Exposure per 100 g serving [2]: 0.19 mg

COc1ccc(S(=O)(=O)N(CCO)c2ccccc2CN(C)C/C=C/c2ccc(Cl)cc2)cc1 [KN93]
Differentiation (percent of MYOG positive nuclei) on co-treatment with ERKi (primary mouse myoblasts [4]): remained unaffected
Cell cycle arrest (pH3 staining, p21 and p27 expression) compared to ERKi alone (primary mouse myoblasts [5]): did not affect cell cycle arrest
Formation of polynucleated myotubes (primary mouse myoblasts [6]): suppressed
Cell motility compared to ERKi-treated cells (primary mouse myoblasts [7]): unchanged
CaMKII activation (p-CaMKII T287) (CaMKII): suppressed CaMKII activation
ERKi-induced elevation of Mymk expression (primary mouse myoblasts [8]): partially suppressed

O.O.O.O.O.O.O=C([O-])CCC(=O)[O-].[Na+].[Na+] [SODIUM SUCCINATE-2Na 6H20]
Intakes for a 65 kg adult below NOAEL ([1]; NOAEL from 2 year rat study): are >1000 fold below
Risk Assessment Category [3, 9]: 2
Maximum Estimated Exposure per 100 g serving [2]: 40 mg

NCCO [MONOETHANOLAMINE]
Intakes for a 65 kg adult below NOAEL ([1]; rat NOAEL): kg adult are 128 fold
Risk Assessment Category [3]: 2
Maximum Estimated Exposure per 100 g serving [2]: 160 mg
